Like-named read-outs stand apart in the source and are kept apart here.
How the values were obtained:
[1] = molecular target: T1, native human TRPA1 receptors (Homo sapiens, UniProt O75762); assay: PF-4840154 (1 μM)-induced Ca2+ fluorescence measurements in A549 cell line; format: cell-based; conditions: for inhibition at 10 µM: 10 μM compound against 1 μM PF-4840154, A549 cells
T1 construct: stably expressing native human TRPA1 receptors were used; endogenous in cells; host or cells: A549 human lung adenocarcinoma epithelial cell line
T1 sequence (O75762 whole entry): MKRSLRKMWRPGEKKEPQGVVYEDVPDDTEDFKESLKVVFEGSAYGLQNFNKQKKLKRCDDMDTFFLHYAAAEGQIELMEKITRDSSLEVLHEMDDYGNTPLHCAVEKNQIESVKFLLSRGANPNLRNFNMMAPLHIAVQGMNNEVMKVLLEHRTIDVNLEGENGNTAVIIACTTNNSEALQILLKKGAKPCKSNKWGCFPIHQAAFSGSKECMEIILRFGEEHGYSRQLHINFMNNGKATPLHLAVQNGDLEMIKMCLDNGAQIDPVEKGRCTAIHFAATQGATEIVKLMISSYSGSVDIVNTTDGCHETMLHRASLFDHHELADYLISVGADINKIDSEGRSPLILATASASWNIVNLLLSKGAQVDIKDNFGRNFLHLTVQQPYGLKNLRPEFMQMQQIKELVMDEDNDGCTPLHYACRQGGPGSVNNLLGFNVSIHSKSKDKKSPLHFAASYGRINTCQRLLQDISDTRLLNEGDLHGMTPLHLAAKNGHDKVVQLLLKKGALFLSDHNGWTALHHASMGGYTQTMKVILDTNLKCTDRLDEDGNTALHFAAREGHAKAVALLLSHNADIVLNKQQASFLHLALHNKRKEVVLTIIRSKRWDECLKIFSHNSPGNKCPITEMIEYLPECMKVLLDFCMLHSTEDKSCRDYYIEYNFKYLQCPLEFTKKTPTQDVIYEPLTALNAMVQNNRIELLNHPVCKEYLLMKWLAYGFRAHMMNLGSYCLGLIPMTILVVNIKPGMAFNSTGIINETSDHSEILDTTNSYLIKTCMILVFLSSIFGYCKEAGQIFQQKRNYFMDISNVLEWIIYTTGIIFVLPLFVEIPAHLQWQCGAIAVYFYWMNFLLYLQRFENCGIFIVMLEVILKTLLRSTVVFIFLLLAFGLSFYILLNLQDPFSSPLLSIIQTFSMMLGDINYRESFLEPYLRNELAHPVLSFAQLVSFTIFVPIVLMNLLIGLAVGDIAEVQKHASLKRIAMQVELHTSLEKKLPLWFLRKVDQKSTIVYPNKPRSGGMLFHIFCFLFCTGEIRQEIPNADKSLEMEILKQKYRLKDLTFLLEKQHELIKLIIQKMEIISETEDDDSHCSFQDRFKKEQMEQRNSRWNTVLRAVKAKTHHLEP
Summary of the method: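 A549 cells stably expressing native human TRPA1, Fluo-4 AM loaded; fluorescence Ca2+ read in HBSS with probenecid and Brilliant Black at 36.5 °C. Compounds tested alone for agonism and against 1 μM PF-4840154 for inhibition at initial 10 μM; IC50 from full concentration-response curves for selected compounds.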

[2] = system: PF-4840154-induced mechanical hyperalgesia in rats; assay: Agonist (PF-4840154)-induced mechanical hyperalgesia in rats; format: in vivo; conditions: Rattus norvegicus, 30 μmol/kg oral, PF-4840154 0.05 nmol/50 μl/paw intraplantar
Source text: Agonist (PF-4840154)-Induced Mechanical Hyperalgesia in Rats
The method is used to investigate the anti-hyperalgesic effects of the compounds listed in the present invention following agonist (PF-4840154)-induced hyperalgesic responses. The activity is indicative of TRPA1 receptor occupancy following oral dosing. Specifically, male SD rats (Charles River, Italy) weighing 70-100 g. were used. The anti-hyperalgesic effects were investigated using the electronic dynamometer test. PF-4840154 (Sigma, USA) was used to induce mechanical hyperalgesia. Local, intraplantar injection of PF-4840154 at 0.05 nmol/50 μl/paw caused the reduction of the hind paw withdrawal response induced by mechanical stimuli. Mechanical stimulation was induced in basal condition and 30, 60, 120, 180 and 240 minutes after the oral administration of the antagonists dissolved in 2.5% DMSO and 30% Solutol. Compounds were orally administered (30 μmol/kg/10 ml) to rats 1 hour before the injection of PF-4840154 into the plantar surface of a rat's hind using a micro syringe.

[3] = system: oxaliplatin-induced mechanical hyperalgesia in rats; assay: Oxaliplatin-induced mechanical hyperalgesia in rats; format: in vivo; conditions: Rattus norvegicus, 168 h, 30 μmol/kg oral, 7 days post i.v. oxaliplatin 2.5 mg/kg
Protocol: Oxaliplatin-Induced Mechanical Hyperalgesia in Rats
The method described by Nassini et al. (Pain, 2011, 152(7), 1621-31) was used with minor modifications. Restrained rats were treated with a single intravenous bolus injection of oxaliplatin (2.5 mg/kg) dissolved in normal saline. This approach was sufficient to elicit reproducible allodynic behaviour evident 3 days post injection and during the day thereafter. For convenience all acute experiments were conducted 7 days post injection when compounds were orally administered at 30 μmol/kg.

[4] = against PF-4840154 (1 μM)-evoked [Ca2+]i mobilization, A549 cells
[5] = read-out: % of reversal of mechanical allodynia
[6] = read-out: Maximal inhibition (%)

Compound | inhibition at 10 µM [1] [%] | IC50 [1, 4] [µM] | IC50 ([1]; against PF-4840154 (1 μM), A549 cells, cells printed in μM) [µM] | cultured cells with increased [Ca2+] ([1]; PF-4840154 1 μM, A549 cells) [%] | inhibition in vivo at 30 µmol/kg [2, 5] [%] | inhibition in vivo at 30 µmol/kg [2, 6] [%] | inhibition in vivo at 30 µmol/kg [3, 5] [%] | inhibition in vivo at 30 µmol/kg [3, 6] [%]
C=C(C(=O)NCc1ccnc(-c2ccc(OC(F)(F)F)cc2)c1)N(C)S(=O)(=O)c1ccc(Cl)cc1 [Example 4, 2-[(4-chlorophenyl)sulfonyl-methyl-amino]-N-[[2-[4-(trifluoromethoxy)phenyl]-4-pyridyl]methyl]prop-2-enamide] | 98 | 0.078 | – | – | 67 | 67 | – | –
C=C(C(=O)NCc1ccnc(-c2ccc(OC(F)(F)F)cc2)c1)N(CC)S(=O)(=O)c1ccc(Cl)cc1 [Example 5, 2-[(4-chlorophenyl)sulfonyl-ethyl-amino]-N-[[2-[4-(trifluoromethoxy)phenyl]-4-pyridyl]methyl]prop-2-enamide] | 99 | 0.1 | – | – | 76 | 76 | – | –
CCN(C1(C(=O)NCc2ccnc(-c3ccc(OC(F)(F)F)cc3)c2)CC1)S(=O)(=O)c1ccc(F)cc1 [Example 26, 1-[ethyl-(4-fluorophenyl)sulfonyl-amino]-N-[[2-[4-(trifluoromethoxy)phenyl]-4-pyridyl]methyl]cyclopropanecarboxamide] | 100 | 0.151 | – | – | 64 | 64 | – | –
CCN(C1(C(=O)NCc2cccc(-c3ccc(C(F)(F)F)cc3)c2)CC1)S(=O)(=O)c1ccc(Cl)cc1 [Example 30, 1-[(4-chlorophenyl)sulfonyl-ethyl-amino]-N-[[3-[4-(trifluoromethyl)phenyl]phenyl]methyl]cyclopropanecarboxamide] | 100 | 0.1 | – | – | 82 | 82 | – | –
CCN(C1(C(=O)NCc2cc(-c3ccc(C(F)(F)F)cc3)nc(N3CCCC3)c2)CC1)S(=O)(=O)c1ccc(Cl)s1 [Example 34, 1-[(5-chloro-2-thienyl)sulfonyl-ethyl-amino]-N-[[2-pyrrolidin-1-yl-6-[4-(trifluoromethyl)phenyl]-4-pyridyl]methyl]cyclopropanecarboxamide] | 100 | 0.025 | – | – | – | – | 71 | 71
C=C(C(=O)NCc1cc(-c2ccc(C(F)(F)F)cc2)nc(N(C)C)c1)N(CC)S(=O)(=O)c1ccc(F)cc1 [Example 37, N-[[2-dimethylamino-6-[4-(trifluoromethyl)phenyl]-4-pyridyl]methyl]-2-[ethyl-(4-fluorophenyl)sulfonyl-amino]prop-2-enamide] | 100 | 0.018 | – | – | 95 | 95 | 82 | 82
C=C(C(=O)NCc1cc(OC)nc(-c2ccc(C(F)(F)F)cc2)c1)N(CC)S(=O)(=O)c1ccc(F)cc1 [Example 40, 2-[ethyl-(4-fluorophenyl)sulfonyl-amino]-N-[[2-methoxy-6-[4-(trifluoromethyl)phenyl]-4-pyridyl]methyl]prop-2-enamide] | 100 | 0.016 | – | – | – | – | 103 | 103
CCN(C1(C(=O)NCc2cc(OC)nc(-c3ccc(C(F)(F)F)cc3)c2)CC1)S(=O)(=O)c1ccc(Cl)s1 [Example 50, 1-[(5-chloro-2-thienyl)sulfonyl-ethyl-amino]-N-[[2-methoxy-6-[4-(trifluoromethyl)phenyl]-4-pyridyl]methyl] cyclopropanecarboxamide] | 100 | 0.019 | – | – | 76 | 76 | 82 | 82

Further lines, with some results ahead:

inhibition at 10 µM [1] [%] | IC50 [1, 4] [µM] | IC50 ([1]; against PF-4840154 (1 μM), A549 cells, cells printed in μM) [µM] | cultured cells with increased [Ca2+] ([1]; PF-4840154 1 μM, A549 cells) [%] | Compound | inhibition in vivo at 30 µmol/kg [2, 5] [%] | inhibition in vivo at 30 µmol/kg [2, 6] [%] | inhibition in vivo at 30 µmol/kg [3, 5] [%] | inhibition in vivo at 30 µmol/kg [3, 6] [%]
100 | 0.041 | – | – | CCN(C1(C(=O)NCc2cc(-c3ccc(C(F)(F)F)cc3)nc(N3CCCC3)c2)CC1)S(=O)(=O)c1ccc(F)cc1 [Example 51, 1-[ethyl-(4-fluorophenyl)sulfonyl-amino]-N-[[2-pyrrolidin-1-yl-6-[4-(trifluoromethyl)phenyl]-4-pyridyl]methyl]cyclopropanecarboxamide] | 76 | 76 | 65 | 65
100 | 0.017 | – | – | CCOc1cc(CNC(=O)C2(N(CC)S(=O)(=O)c3ccc(Cl)s3)CC2)cc(-c2ccc(C(F)(F)F)cc2)n1 [Example 53, 1-[(5-chloro-2-thienyl)sulfonyl-ethyl-amino]-N-[[2-ethoxy-6-[4-(trifluoromethyl)phenyl]-4-pyridyl]methyl] cyclopropanecarboxamide] | 89 | 89 | 83 | 83
99 | 0.038 | – | – | CCN(C1(C(=O)NCc2cccc(-c3ccc(C(F)(F)F)cc3)c2)CC1)S(=O)(=O)c1ccc(Cl)s1 [Example 59, 1-[(5-chloro-2-thienyl)sulfonyl-ethyl-amino]-N-[[3-[4-(trifluoromethyl)phenyl]phenyl]methyl]cyclopropanecarboxamide] | 111 | 111 | 67 | 67
99 | 0.175 | – | – | C=C(C(=O)NCc1cc(-c2ccc(OC(F)(F)F)cc2)nc(N2CCN(CC3CC3)CC2)c1)N(CC)S(=O)(=O)c1ccc(F)cc1 [Example 63, N-[[2-[4-(cyclopropylmethyl)piperazin-1-yl]-6-[4-(trifluoromethoxy)phenyl]-4-pyridyl]methyl]-2-[ethyl-(4-fluorophenyl)sulfonyl-amino]prop-2-enamide] | – | – | – | –
99 | 0.338 | – | – | CCN(C1(C(=O)NCc2cc(-c3ccc(C(F)(F)F)cc3)nc(N3CCN(CC4CC4)CC3)c2)CC1)S(=O)(=O)c1ccc(F)cc1 [Example 64, N-[[2-[4-(cyclopropylmethyl)piperazin-1-yl]-6-[4-(trifluoromethyl)phenyl]-4-pyridyl]methyl]-1-[ethyl-(4-fluorophenyl)sulfonyl-amino]cyclopropanecarboxamide] | – | – | – | –
100 | 0.327 | – | – | CCN(C1(C(=O)NCc2cc(-c3ccc(C(F)(F)F)cc3)nc(N3CCN(CC4CC4)CC3)c2)CC1)S(=O)(=O)c1ccc(Cl)s1 [Example 65, 1-[(5-chloro-2-thienyl)sulfonyl-ethyl-amino]-N-[[2-[4-(cyclopropylmethyl)piperazin-1-yl]-6-[4-(trifluoromethyl)phenyl]-4-pyridyl]methyl]cyclopropanecarboxamide] | – | – | – | –
93 | – | 1.5 | – | CCN(C1(C(=O)NCc2cc(-c3ccc(C(F)(F)F)cc3)nc(N3CCN(C4CCCCC4)CC3)c2)CC1)S(=O)(=O)c1ccc(F)cc1 [Example 66, N-[[2-(4-cyclohexylpiperazin-1-yl)-6-[4-(trifluoromethyl)phenyl]-4-pyridyl]methyl]-1-[ethyl-(4-fluorophenyl)sulfonyl-amino]cyclopropanecarboxamide] | – | – | – | –
95 | 0.59 | – | – | CCN(C1(C(=O)NCc2cc(-c3ccc(C(F)(F)F)cc3)nc(N3CCN(C4CCCCC4)CC3)c2)CC1)S(=O)(=O)c1ccc(Cl)s1 [Example 67, 1-[(5-chloro-2-thienyl)sulfonyl-ethyl-amino]-N-[[2-(4-cyclohexylpiperazin-1-yl)-6-[4-(trifluoromethyl)phenyl]-4-pyridyl]methyl]cyclopropanecarboxamide] | – | – | – | –
– | – | – | 95 | CC(C)CNc1nc(N2CCN(CC3CCCOC3)CC2)ncc1C(=O)NCc1ccccc1 (centres unmarked) [PF-4840154, reference compound] | – | – | – | –

Source: patent publication US9409864B2, “Sulfonamide TRPA1 receptor antagonists” (ARIO PHARMA LIMITED, priority 2013, dated 2016)
